Experimental data taken from the NIST ThermoML archive (doi:10.1021/je4000372).

Test: xn = mol fraction of the nth substance listed
Details: 101 kPa, Liquid; for viscosity: Capillary tube (Ostwald / Ubbelohde) method; for mass density: Pycnometric method

CCCCOCCOCCO [3,6-dioxa-1-decanol] + NCCO
Details	mass density, 293.15 K [kg/m3]	mass density, 303.15 K [kg/m3]	mass density, 313.15 K [kg/m3]	mass density, 323.15 K [kg/m3]	mass density, 333.15 K [kg/m3]	viscosity, 293.15 K [mPa·s]	viscosity, 303.15 K [mPa·s]	viscosity, 313.15 K [mPa·s]	viscosity, 323.15 K [mPa·s]	viscosity, 333.15 K [mPa·s]
x1 = 0.04025	1010.3	1002.5	994.3	986.2	978.2	23.11	14.27	9.52	6.64	4.82
x1 = 0.08607	1004.5	996.6	988.5	980.4	972.5	21.86	13.61	9.1	6.37	4.65
x1 = 0.1392	998.5	990.5	982.5	974.3	966.4	20.39	12.86	8.62	6.07	4.43
x1 = 0.2008	992.5	984.2	976.4	968.1	960.1	18.81	11.99	8.08	5.73	4.19
x1 = 0.2732	986.4	977.9	970.1	961.7	953.7	17.01	11.01	7.47	5.33	3.91
x1 = 0.3602	980.2	971.5	963.7	955.1	947.1	15.02	9.83	6.76	4.88	3.61
x1 = 0.4111	976.9	968.2	960.4	951.8	943.7	13.86	9.16	6.37	4.63	3.45
x1 = 0.4671	973.8	964.9	957.2	948.4	940.4	12.72	8.51	5.97	4.37	3.28
x1 = 0.4977	972.1	963.3	955.5	946.7	938.7	12.16	8.17	5.77	4.23	3.19
x1 = 0.6007	967.1	958.1	950.3	941.5	933.5	10.46	7.18	5.12	3.79	2.91
x1 = 0.7204	962	952.9	945.2	936.3	928.3	8.65	6.21	4.42	3.34	2.59
x1 = 0.7699	960.2	951.1	943.3	934.4	926.4	8.02	5.82	4.17	3.17	2.48
x1 = 0.8163	958.5	949.3	941.6	932.7	924.7	7.42	5.47	3.96	3.02	2.37
x1 = 0.9331	954.8	945.5	937.7	928.7	920.7	6.34	4.62	3.48	2.69	2.11
x1 = 1	952.9	943.5	935.7	926.6	918.5	5.84	4.23	3.22	2.51	2

CCCCOCCOCCO [3,6-dioxa-1-decanol] + OCCNCCO
Details	mass density, 293.15 K [kg/m3]	mass density, 303.15 K [kg/m3]	mass density, 313.15 K [kg/m3]	mass density, 323.15 K [kg/m3]	mass density, 333.15 K [kg/m3]	viscosity, 293.15 K [mPa·s]	viscosity, 303.15 K [mPa·s]	viscosity, 313.15 K [mPa·s]	viscosity, 323.15 K [mPa·s]	viscosity, 333.15 K [mPa·s]
x1 = 0.03299	1088.3	1081.8	1075.8	1069.4	1062.8	681.3	290.7	156.2	80.04	46.73
x1 = 0.06718	1080.7	1074.2	1068	1061.5	1054.9	550.2	231.6	122.5	66.29	38.49
x1 = 0.1026	1073.2	1066.5	1060.3	1053.6	1046.9	425.1	189.9	98.2	53.87	31.99
x1 = 0.1394	1065.8	1058.9	1052.5	1045.7	1038.8	321.3	150.1	81.15	43.18	26.71
x1 = 0.2174	1050.9	1043.7	1037.1	1029.9	1022.8	191.6	96.21	53.26	30.37	19.13
x1 = 0.3018	1036.3	1028.7	1021.9	1014.5	1007.3	114.4	59.95	34.51	20.74	13.22
x1 = 0.3933	1021.9	1014	1007	999.2	991.8	65.16	37.05	22.29	14.26	9.429
x1 = 0.4929	1007.7	999.5	992.3	984.2	976.7	38.57	22.76	14.83	9.416	6.995
x1 = 0.6019	993.8	985.2	977.9	969.6	961.9	23.75	14.92	10.02	7.041	5.178
x1 = 0.7008	982.3	973.5	966.1	957.6	949.8	15.75	10.43	7.262	5.199	3.927
x1 = 0.7558	976.4	967.5	960	951.4	943.5	12.19	8.762	6.011	4.251	3.358
x1 = 0.8059	971.2	962.2	954.7	946	938.1	10.43	7.305	5.293	3.759	3.035
x1 = 0.8537	966.4	957.3	949.7	940.9	933	8.982	6.312	4.629	3.407	2.756
x1 = 0.9031	961.6	952.4	944.8	935.9	927.9	7.858	5.501	4.032	3.028	2.463
x1 = 1	952.9	943.5	935.7	926.6	918.5	5.84	4.23	3.22	2.51	2

OCCN(CCO)CCO [triethanolamine] + CCCCOCCOCCO
Details	mass density, 293.15 K [kg/m3]	mass density, 303.15 K [kg/m3]	mass density, 313.15 K [kg/m3]	mass density, 323.15 K [kg/m3]	mass density, 333.15 K [kg/m3]	viscosity, 293.15 K [mPa·s]	viscosity, 303.15 K [mPa·s]	viscosity, 313.15 K [mPa·s]	viscosity, 323.15 K [mPa·s]	viscosity, 333.15 K [mPa·s]
x2 = 0	1124.3	1118.5	1112.8	1107.1	1101.5	917.6	404.7	203.9	108.3	64.2
x2 = 0.09279	1105.1	1098.9	1093.1	1087.2	1081.4	491.9	228.3	112.58	69.65	43.5
x2 = 0.1871	1086.3	1079.9	1073.9	1067.5	1061.6	269.8	126.6	67.74	44.43	28.3
x2 = 0.2841	1067.9	1061	1054.8	1048.1	1041.8	153.2	69.69	40.77	28.48	18.4
x2 = 0.3804	1050.4	1043.1	1036.7	1029.5	1022.9	85.31	41.88	25.92	17.59	12.6
x2 = 0.4787	1033.3	1025.6	1018.9	1011.4	1004.5	50.08	26.39	16.38	–	8.97
x2 = 0.5789	1016.5	1008.5	1001.6	993.7	986.6	30.52	17.51	10.81	8.79	6.52
x2 = 0.6816	999.9	991.7	984.6	976.4	969	18.81	10.74	7.41	5.83	4.71
x2 = 0.7855	983.9	975.2	967.9	959.5	951.9	12.36	8.16	–	4.35	3.54
x2 = 0.8923	968.1	959.1	951.5	942.7	934.9	8.49	6.01	–	3.39	2.67
